Test results reported in PMC7002685, “Inhibition of vascular calcification by inositol phosphates derivatized with ethylene glycol oligomers” (Nature Communications, 2020).
Values joined by “and” are separate entries in the source; they are usually repeats but may differ in a detail not shown here. Identical values can stand only once. Like-named read-outs stand apart in the source and are kept apart here.

Tests used:
[1] = Urinary excretion after s.c. administration; assay type: in vivo, rat; conditions: 10 mg/kg s.c.; for Cumulative recovery from rat urine / dose excreted: healthy rats; for dose excreted: rat, urine, subcutaneous, 10 mg/kg, read-out: Cumulative recovery from rat urine
Method: To study urinary excretion, six animals were administered s.c. 10 mg/kg of (OEG2)2-IP4 and two animals served as blank urine controls. Animals were placed in separated metabolic cages ([…] S.p.A. Buguggiate, Italy) right after dosing, left there for the entire experiment, and urine was collected after 2, 5, 8, and 24 h. At the end of the experiment, cages were washed with 10 mL water and the washes were collected in separated tubes. Urine samples were centrifuged at 3000 × g and 4 °C for 10 min and stored at −20 °C until quantification of (OEG2)2-IP4 by LC-MS/MS. Recovery (%) was calculated using Eq. (2).2 Recovery%=OEG22IP4μg/doseμg×ratweightkg×100.

[2] = target: T1, Adenosine A2A (Homo sapiens, UniProt P29274); assay: Off-target 200610; assay type: binding
T1 construct: purchased Eurofins Panlabs Discovery Services Taiwan, Ltd
T1 sequence (P29274 whole entry): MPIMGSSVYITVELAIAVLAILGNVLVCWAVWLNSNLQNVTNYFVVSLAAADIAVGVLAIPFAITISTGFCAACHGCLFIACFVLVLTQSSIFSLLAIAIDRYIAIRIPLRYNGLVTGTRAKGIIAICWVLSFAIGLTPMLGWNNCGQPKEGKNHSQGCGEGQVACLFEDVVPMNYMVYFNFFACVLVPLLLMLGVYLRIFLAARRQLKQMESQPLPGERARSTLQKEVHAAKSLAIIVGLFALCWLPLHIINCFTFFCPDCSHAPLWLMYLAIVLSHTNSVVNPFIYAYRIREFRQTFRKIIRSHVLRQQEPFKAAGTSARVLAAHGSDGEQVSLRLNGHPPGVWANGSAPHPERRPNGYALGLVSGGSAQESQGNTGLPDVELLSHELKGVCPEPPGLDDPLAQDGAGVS
Method: (§1) The potential off-target activity of 10 µM (OEG2)2-IP4 was assessed against a panel of 87 enzymes, receptors, or ion channels that are used in standard safety pharmacology screens.
(§2) 3.2. Off-target screening assay
(§3) The experiments were conducted by a contract research organization (Eurofins Panlabs Discovery Services Taiwan, Ltd.) and details on the respective assays can be retrieved via the catalog number provided in Supplementary Table 11 from the company’s webpage
(§4) (https://www.eurofinsdiscoveryservices.com/). […]
(§5) At sacrifice the left tibia of animals of the rat model with dietary adenine/high-phosphate-induced uremia and VC was collected, fixed with 70% v/v EtOH and embedded in methyl methacrylate. The trabecular bone compartment is known to be the most metabolic active i.e. actively re-structured bone compartment in CKD. Therefore, histomorphometric and micro-computed tomography (µCT) analysis of bone was performed on the trabecular compartment. Tibial sections were Goldner-stained for histomorphometric analysis of the proximal metaphysis using the AxioVision Release 4.5 software, as […]
(§6) described previously5. […]

[3] = target: T2, Cannabinoid CB2 (Homo sapiens, UniProt P34972); assay: Off-target 217100; assay type: binding
T2 construct: purchased Eurofins Panlabs Discovery Services Taiwan, Ltd
T2 sequence (P34972 whole entry): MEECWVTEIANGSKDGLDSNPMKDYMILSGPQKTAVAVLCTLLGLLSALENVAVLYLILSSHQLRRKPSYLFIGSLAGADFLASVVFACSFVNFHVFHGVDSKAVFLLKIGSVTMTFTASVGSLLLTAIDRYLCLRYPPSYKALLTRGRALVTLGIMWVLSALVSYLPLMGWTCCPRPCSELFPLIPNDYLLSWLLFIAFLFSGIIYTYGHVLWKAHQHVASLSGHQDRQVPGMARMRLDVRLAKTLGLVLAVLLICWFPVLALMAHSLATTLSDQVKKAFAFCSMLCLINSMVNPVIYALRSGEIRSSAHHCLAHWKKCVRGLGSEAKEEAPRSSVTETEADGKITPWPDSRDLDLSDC
Method: as §1, §2, §3, §4, §5, §6

[4] = target: T3, Cyclooxygenase COX-1 (Homo sapiens, UniProt P23219); assay: Off-target 116020; assay type: biochemical
T3 construct: purchased Eurofins Panlabs Discovery Services Taiwan, Ltd
T3 sequence (P23219 24-599): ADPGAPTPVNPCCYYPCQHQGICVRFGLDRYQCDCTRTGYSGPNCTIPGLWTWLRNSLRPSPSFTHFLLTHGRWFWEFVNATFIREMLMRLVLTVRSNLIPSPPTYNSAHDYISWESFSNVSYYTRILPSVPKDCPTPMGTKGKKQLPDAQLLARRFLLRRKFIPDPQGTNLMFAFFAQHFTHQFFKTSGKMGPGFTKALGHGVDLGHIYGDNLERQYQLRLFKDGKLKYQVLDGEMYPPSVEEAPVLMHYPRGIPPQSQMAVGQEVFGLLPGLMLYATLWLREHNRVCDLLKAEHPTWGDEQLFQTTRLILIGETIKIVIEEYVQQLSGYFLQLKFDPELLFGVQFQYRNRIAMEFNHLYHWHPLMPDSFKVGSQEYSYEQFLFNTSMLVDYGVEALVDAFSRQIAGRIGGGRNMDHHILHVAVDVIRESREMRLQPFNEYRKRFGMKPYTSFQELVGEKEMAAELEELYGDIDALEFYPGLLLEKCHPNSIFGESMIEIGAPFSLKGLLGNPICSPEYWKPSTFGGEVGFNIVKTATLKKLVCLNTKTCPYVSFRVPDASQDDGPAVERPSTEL
Method: as §1, §2
(§7) The experiments were conducted by a contract research organization (Eurofins Panlabs Discovery
(§8) Services Taiwan, Ltd.) and details on the respective assays can be retrieved via the catalog number
(§9) provided in Supplementary Table 11 from the company’s webpage
as §4

[5] = test system: Calcium Channel L-Type, Phenylalkylamine; assay: Off-target 215000; assay type: binding, Rat; conditions: 10 µM
Method: as §1, §2, §7, §8, §9, §4

[6] = In vitro ionized human serum calcium; assay type: physicochemical
Method: One potential side effect of inositol phosphate-based drugs is toxicity due to chelation of ionized serum calcium. […] At 100 µM (OEG2)2-IP4, 96 ± 2% of control serum-ionized calcium was measured.
To assess reduction in ionized serum calcium, increasing concentrations of test compounds were incubated in human serum (Human AB serum, off-the-clot, HSER-ABPM; LuBioScience GmbH, Zurich, Switzerland) at RT and free ionized calcium levels were measured subsequently by the o-cresolphthalein method using the calcium colorimetric assay.

[7] = target: T4, Muscarinic M2 (Homo sapiens, UniProt P08172); assay: Off-target 252710; assay type: binding
T4 construct: purchased Eurofins Panlabs Discovery Services Taiwan, Ltd
T4 sequence (P08172 whole entry): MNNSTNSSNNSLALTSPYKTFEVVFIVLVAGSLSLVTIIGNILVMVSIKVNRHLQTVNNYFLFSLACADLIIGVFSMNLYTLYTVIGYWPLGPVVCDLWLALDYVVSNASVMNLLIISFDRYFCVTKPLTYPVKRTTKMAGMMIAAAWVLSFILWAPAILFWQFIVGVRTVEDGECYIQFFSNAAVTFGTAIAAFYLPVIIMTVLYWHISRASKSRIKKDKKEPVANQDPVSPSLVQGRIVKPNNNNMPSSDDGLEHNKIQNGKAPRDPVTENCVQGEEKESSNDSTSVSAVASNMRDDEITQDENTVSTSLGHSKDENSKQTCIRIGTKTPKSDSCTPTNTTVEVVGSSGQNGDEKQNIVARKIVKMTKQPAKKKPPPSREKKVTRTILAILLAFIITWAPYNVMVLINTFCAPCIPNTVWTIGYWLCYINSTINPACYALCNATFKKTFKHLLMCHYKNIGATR
Method: as §1, §2, §3, §4, §5, §6

[8] = target: T5, Melanocortin MC1 (Homo sapiens, UniProt Q01726); assay: Off-target 251100 (MC1); assay type: binding
T5 construct: purchased Eurofins Panlabs Discovery Services Taiwan, Ltd
T5 sequence (Q01726 whole entry): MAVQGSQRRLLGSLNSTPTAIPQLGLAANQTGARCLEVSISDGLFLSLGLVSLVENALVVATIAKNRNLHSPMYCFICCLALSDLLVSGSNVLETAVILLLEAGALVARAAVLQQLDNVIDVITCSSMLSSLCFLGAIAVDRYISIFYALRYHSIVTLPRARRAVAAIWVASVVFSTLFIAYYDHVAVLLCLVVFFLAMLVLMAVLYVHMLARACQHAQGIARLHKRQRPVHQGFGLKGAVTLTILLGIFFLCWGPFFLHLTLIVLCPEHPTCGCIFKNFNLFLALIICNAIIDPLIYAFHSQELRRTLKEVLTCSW
Method: as §1, §2, §3, §4, §5, §6

[9] = target: T6, Phosphodiesterase PDE3 (Homo sapiens, UniProt Q14432); assay: Off-target 152000; assay type: biochemical
T6 construct: purchased Eurofins Panlabs Discovery Services Taiwan, Ltd
T6 sequence (Q14432 whole entry): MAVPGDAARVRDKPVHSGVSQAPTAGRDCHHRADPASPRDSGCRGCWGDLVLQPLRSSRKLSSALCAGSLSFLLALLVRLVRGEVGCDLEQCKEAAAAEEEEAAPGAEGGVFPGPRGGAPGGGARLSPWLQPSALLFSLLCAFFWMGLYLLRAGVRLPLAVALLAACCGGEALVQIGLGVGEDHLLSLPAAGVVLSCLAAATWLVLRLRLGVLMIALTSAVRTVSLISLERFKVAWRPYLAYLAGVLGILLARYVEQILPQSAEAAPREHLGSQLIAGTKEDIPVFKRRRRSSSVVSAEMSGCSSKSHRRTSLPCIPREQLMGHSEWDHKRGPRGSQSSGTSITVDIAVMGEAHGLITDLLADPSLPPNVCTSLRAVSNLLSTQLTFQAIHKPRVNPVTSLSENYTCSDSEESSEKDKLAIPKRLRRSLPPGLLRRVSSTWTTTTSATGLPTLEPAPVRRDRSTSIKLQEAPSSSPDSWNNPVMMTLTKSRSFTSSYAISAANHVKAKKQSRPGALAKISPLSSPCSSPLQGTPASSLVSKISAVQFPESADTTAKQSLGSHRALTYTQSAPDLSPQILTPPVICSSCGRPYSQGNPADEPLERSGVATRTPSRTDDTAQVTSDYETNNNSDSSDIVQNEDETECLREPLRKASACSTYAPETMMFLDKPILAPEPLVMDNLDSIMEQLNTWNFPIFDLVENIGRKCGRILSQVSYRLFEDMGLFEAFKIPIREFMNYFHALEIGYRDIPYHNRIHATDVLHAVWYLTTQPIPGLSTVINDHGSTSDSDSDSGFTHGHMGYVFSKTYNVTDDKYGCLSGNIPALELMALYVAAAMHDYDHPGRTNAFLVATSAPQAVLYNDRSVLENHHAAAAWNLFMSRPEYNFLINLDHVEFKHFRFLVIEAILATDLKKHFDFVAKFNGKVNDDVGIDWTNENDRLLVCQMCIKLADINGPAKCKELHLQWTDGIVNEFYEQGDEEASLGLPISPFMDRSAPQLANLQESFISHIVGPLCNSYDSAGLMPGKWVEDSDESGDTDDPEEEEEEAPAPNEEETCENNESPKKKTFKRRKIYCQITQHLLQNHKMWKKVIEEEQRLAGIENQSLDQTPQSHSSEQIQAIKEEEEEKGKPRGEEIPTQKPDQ
Method: as §1, §2, §7, §8, §9, §4

[10] = test system: TNFα release from THP-1-derived macrophages; assay: TNFα in macrophage supernatants after CPP2 and compounds; assay type: cell-based, human; conditions: for TNFα concentration in macrophage supernatants: 24 h, unit not given
Method: Macrophage accumulation and inflammation coincide with the initial phase of calcification. To this end, VSMCs and THP-1-derived macrophages were exposed to CPP2-supplemented medium. CPP2 prepared from human serum as described previously[61] (Supplementary Figs. 6 and 7), induced a pronounced VSMC monolayer calcification after 48 h, which was decreased by (OEG2)2-IP4 in a dose-dependent fashion, and the effect became significant at 10 µM (Fig. 3e). […] Both H2O2 (proxy for oxidative stress) and tumor necrosis factor-alpha (TNF-α) (proxy for inflammatory response) levels were assayed in the VSMC culture supernatants subsequent to CPP2 treatment with and without compounds[30]. However, no increase in H2O2 nor TNF-α compared to control could be detected in either assay. For the CPP-induced VSMC calcification assay (Fig. 3e) a roughly 10-fold higher concentration of (OEG2)2-IP4 was necessary to achieve similar activity as in the CaP-induced VSMC calcification assay (Fig. 3b). […] In the CaP assay, low inhibitor concentration may be sufficient to inhibit crystal nucleation, whereas for the CPP assay higher inhibitor concentrations may be needed to achieve sufficient particle stabilization by chemisorption of inhibitor onto CPPs. Similar results have been reported for hydrogen sulfide in the context of VC[62],[64]. […] An increase in the TNFα levels in the cell culture supernatants was not observed for (OEG2)2-IP4 with (Fig. 3h) and without (Supplementary Fig. 10) combined CPP2 treatment.
THP-1 cells were plated at a density of 200,000 cells/well in a 24-well plate, differentiated as stated above, and subsequently treated with or without CPP2 (50 μg Ca/mL) in complete medium with or without test compounds (3, 10, 30, 100 μM) for 24 h at 37 °C, 5% CO2.
Human TNF-α was assayed in cell culture supernatants using commercial multiplex immunoassay kits (U-Plex of TNF-α (custom-made multiplex plate) and Human TNF- Kit (K151QWD-1), both from MesoScaleDiscovery, Rockville, MD, USA), and corrected for total protein content using the Micro BCA^TM Protein Assay Kit.

[11] = target: T7, Dopamine D2L (Homo sapiens, UniProt P14416); assay: Off-target 219500 (D2L); assay type: binding
T7 construct: purchased Eurofins Panlabs Discovery Services Taiwan, Ltd
T7 sequence (P14416 whole entry): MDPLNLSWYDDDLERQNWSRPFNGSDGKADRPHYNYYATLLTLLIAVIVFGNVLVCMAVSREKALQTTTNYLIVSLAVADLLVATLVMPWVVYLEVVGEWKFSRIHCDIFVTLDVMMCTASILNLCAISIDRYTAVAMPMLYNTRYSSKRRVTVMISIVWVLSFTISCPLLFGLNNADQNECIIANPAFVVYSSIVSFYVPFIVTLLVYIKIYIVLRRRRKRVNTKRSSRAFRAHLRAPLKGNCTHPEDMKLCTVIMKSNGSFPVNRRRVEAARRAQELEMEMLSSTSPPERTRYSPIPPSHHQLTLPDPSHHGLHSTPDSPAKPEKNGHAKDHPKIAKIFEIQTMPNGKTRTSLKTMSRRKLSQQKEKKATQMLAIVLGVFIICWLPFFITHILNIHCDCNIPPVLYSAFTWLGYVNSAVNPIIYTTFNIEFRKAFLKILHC
Method: as §1, §2, §7, §8, §9, §4

[12] = target: T8, Dopamine D1 (Homo sapiens, UniProt P21728); assay: Off-target 219500 (D1); assay type: binding
T8 construct: purchased Eurofins Panlabs Discovery Services Taiwan, Ltd
T8 sequence (P21728 whole entry): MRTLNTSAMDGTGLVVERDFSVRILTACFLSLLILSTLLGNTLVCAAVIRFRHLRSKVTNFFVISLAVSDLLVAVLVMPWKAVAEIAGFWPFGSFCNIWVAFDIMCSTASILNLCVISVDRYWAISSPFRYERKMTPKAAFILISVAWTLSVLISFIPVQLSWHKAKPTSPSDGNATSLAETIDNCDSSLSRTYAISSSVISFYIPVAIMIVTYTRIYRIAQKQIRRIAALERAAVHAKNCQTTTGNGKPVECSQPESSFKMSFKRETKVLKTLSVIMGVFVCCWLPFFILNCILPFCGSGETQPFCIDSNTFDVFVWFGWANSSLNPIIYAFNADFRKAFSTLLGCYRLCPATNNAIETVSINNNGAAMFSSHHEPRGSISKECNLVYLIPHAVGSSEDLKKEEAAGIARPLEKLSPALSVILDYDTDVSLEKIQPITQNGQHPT
Method: as §1, §2, §7, §8, §9, §4

[13] = target: T9, Transporter, Serotonin (5-Hydroxytryptamine) (SERT) (Homo sapiens, UniProt P31645); assay: Off-target 274030; assay type: binding
T9 construct: purchased Eurofins Panlabs Discovery Services Taiwan, Ltd
T9 sequence (P31645 whole entry): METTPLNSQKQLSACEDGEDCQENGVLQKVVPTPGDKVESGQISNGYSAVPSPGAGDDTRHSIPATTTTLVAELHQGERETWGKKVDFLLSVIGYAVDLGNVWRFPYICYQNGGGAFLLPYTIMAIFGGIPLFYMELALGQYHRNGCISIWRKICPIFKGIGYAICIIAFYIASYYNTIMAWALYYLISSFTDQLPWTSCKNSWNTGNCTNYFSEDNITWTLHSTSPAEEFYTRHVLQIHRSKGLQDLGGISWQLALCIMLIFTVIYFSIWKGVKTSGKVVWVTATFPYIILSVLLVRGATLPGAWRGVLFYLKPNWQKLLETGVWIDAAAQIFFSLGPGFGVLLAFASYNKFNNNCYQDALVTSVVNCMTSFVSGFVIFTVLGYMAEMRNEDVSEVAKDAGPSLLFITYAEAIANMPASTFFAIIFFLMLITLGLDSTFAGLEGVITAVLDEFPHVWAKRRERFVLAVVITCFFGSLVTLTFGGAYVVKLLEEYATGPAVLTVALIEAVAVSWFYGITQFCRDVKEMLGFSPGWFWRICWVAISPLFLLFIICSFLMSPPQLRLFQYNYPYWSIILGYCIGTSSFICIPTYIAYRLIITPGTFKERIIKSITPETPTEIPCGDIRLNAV
Method: as §1, §2, §7, §8, §9, §4

SMILES: COCCOCCO[C@@H]1[C@@H](OP(=O)(O)O)[C@H](OCCOCCOC)[C@@H](OP(=O)(O)O)[C@@H](OP(=O)(O)O)[C@H]1OP(=O)(O)O [(OEG2)2-IP4, 4,6-Di-O-(methoxy-diethyleneglycol)-myo-inositol-1,2,3,5-tetrakis(phosphate)]
- intact dose recovered in the urine of healthy rats [1]: Forty percent
- Cumulative recovery from rat urine ([1]; 2 h, individual rats Fig. 4j): 21.7% and 21.3% and 24.6% and 20.5%
- Cumulative recovery from rat urine ([1]; 8 h): 49% and 34.7% and 40.7% and 37.3% and 32.9%
- Cumulative recovery from rat urine ([1]; 24 h): 52.9% and 39.5% and 42.5% and 38.2% and 34.7%
- dose excreted ([1]; 2 h, individual rats Fig. 4j): 26.7%
- dose excreted ([1]; 8 h): 29.8%
- dose excreted ([1]; 24 h): 34.4%
- inhibition at 10 µM [2]: 5%
- inhibition at 10 µM [3]: 12%
- inhibition at 10 µM [4]: -2%
- % Inhibition [5]: -4%
- concentration from which difference to IP6 in decrease of serum-ionized calcium became significant [6]: ≥ 600 µM
- inhibition at 10 µM [7]: 4%
- inhibition at 10 µM [8]: 9%
- inhibition at 10 µM [9]: -1%
- TNFα concentration in macrophage supernatants ([10]; 3 µM + CPP2 50 µg Ca/mL, replicates Fig. 3h): 169.13 and 90.77 and 60.49
- TNFα concentration in macrophage supernatants ([10]; 10 µM + CPP2 50 µg Ca/mL): 111.79 and 105.92 and 63.72
- TNFα concentration in macrophage supernatants ([10]; 30 µM + CPP2 50 µg Ca/mL): 131.34 and 98.11 and 72.68
- increase in TNFα levels in supernatants ([10]; with combined CPP2 treatment): not observed
- inhibition at 10 µM [11]: -10%
- inhibition at 10 µM [12]: -1%
- inhibition at 10 µM [13]: 2%
